Data reported in PubChem BioAssay (NCI).
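All cell lines were grown in 96-well plates and treated with compound for 48 hours. TGI: total growth inhibition.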

Legend:
Assay in all cases: NCI-60 cell line screen, 48 h
RPMI-8226 leukemia = test system: RPMI-8226 leukemia
SF-295 CNS = test system: SF-295 CNS
NCI-H460 lung = test system: NCI-H460 lung
SK-MEL-5 melanoma = test system: SK-MEL-5 melanoma
KM12 colon = test system: KM12 colon
OVCAR-3 ovarian = test system: OVCAR-3 ovarian
OVCAR-8 ovarian = test system: OVCAR-8 ovarian
SK-MEL-2 melanoma = test system: SK-MEL-2 melanoma
HL-60(TB) leukemia = test system: HL-60(TB) leukemia
BT-549 breast = test system: BT-549 breast
MDA-N = test system: MDA-N
MDA-MB-435 = test system: MDA-MB-435
PC-3 prostate = test system: PC-3 prostate
U251 CNS = test system: U251 CNS
HT29 colon = test system: HT29 colon
MALME-3M melanoma = test system: MALME-3M melanoma

Structure (SMILES) | TGI (RPMI-8226 leukemia) | TGI (SF-295 CNS) | TGI (NCI-H460 lung) | TGI (SK-MEL-5 melanoma) | TGI (KM12 colon) | TGI (OVCAR-3 ovarian) | TGI (OVCAR-8 ovarian) | TGI (SK-MEL-2 melanoma) | TGI (HL-60(TB) leukemia) | TGI (BT-549 breast) | TGI (MDA-N) | TGI (MDA-MB-435) | TGI (PC-3 prostate) | TGI (U251 CNS) | TGI (HT29 colon) | TGI (MALME-3M melanoma)
Fc1cc(-c2cc(-c3ccccc3)no2)c(Cl)cc1Cl | 34 µM | > 49.4 µM | > 43.1 µM | > 33.5 µM | > 58.4 µM | > 40.1 µM | > 40.8 µM | > 40.1 µM | > 37.7 µM | 39.8 µM | > 68.9 µM | > 35.9 µM | > 50 µM | > 21.7 µM | > 46.7 µM | > 35.2 µM
CC(C)=CC[C@]12CCN[C@H]1N(S(=O)(=O)c1ccccc1)c1ccccc12 | 45.9 µM | 34.5 µM | 29 µM | 28.1 µM | 76.3 µM | 30.6 µM | 33.9 µM | 31.6 µM | 45.6 µM | 33.7 µM | 29.1 µM | 32.5 µM | 27.4 µM | 30.7 µM | 39 µM | 32.7 µM
COC(=O)c1ccccc1/C=C1\Cc2ccc(C)c(C)c2C1=O | > 100 µM | > 100 µM | > 100 µM | > 100 µM | > 100 µM | > 100 µM | > 100 µM | > 100 µM | > 100 µM | > 100 µM | > 100 µM | > 100 µM | > 100 µM | > 100 µM | > 100 µM | > 100 µM
O=C(Oc1ccccn1)c1cc2cc(CCl)ccc2oc1=O | > 100 µM | > 100 µM | > 100 µM | > 100 µM | > 100 µM | 38.1 µM | > 100 µM | > 100 µM | > 100 µM | 49.7 µM | > 100 µM | > 100 µM | 38.5 µM | 34.7 µM | > 100 µM | 31.3 µM
COc1cc(C2c3cc4c(cc3OC3(OC)COC(=O)C23)OCO4)cc(OC)c1OC(C)=O (stereo not drawn) | > 100 µM | 5.38 µM | > 59.7 µM | 34.6 µM | > 100 µM | > 36.2 µM | > 75.2 µM | > 100 µM | 12.8 µM | > 100 µM | 2.55 µM | 2.23 µM | > 36.1 µM | > 100 µM | > 37.5 µM | > 100 µM
O=C(/C=C/c1cc2ccccc2o1)N1CCN(c2ccccn2)CC1 | > 100 µM | > 100 µM | > 100 µM | > 100 µM | > 100 µM | > 100 µM | > 100 µM | > 100 µM | > 100 µM | > 100 µM | > 100 µM | > 100 µM | > 100 µM | > 100 µM | > 100 µM | > 100 µM
O=c1[nH]nc(Cc2ccccc2)n1/N=C/c1ccccc1O | > 100 µM | > 100 µM | > 100 µM | > 100 µM | > 100 µM | > 100 µM | > 100 µM | > 100 µM | > 100 µM | > 100 µM | > 100 µM | > 100 µM |  | > 100 µM | > 100 µM | > 100 µM
Cc1ccnc2[nH]c3ccccc3c(=O)c12 | 95.8 µM | > 100 µM | 97.5 µM | 33.2 µM | 50.3 µM | 72.1 µM | > 100 µM | 68.7 µM | 61.3 µM | 86.7 µM | 47 µM | 41.8 µM | 81.6 µM |  | 36 µM | 43.1 µM
CC1OC(OC2C(O)COC(OC3C(C)OC(OC4C(OC(=O)[C@]56CCC(C)(C)C[C@@H]5C5=CCC7[C@@]8(C)C[C@H](O)[C@H](OC9OC(CO)C(O)C(O)C9O)[C@@](C)(CO)[C@@H]8CC[C@@]7(C)[C@]5(C)CC6)OCC(O)C4O)C(O)C3OC3OCC(O)(CO)C3O)C2O)C(O)C(O)C1O (stereo partly drawn) | > 100 µM | 32.2 µM | 42.2 µM | 29.8 µM | 52.4 µM | 40.8 µM | 40.4 µM | 30.8 µM | 30.2 µM | 38 µM | 32.5 µM | 47.3 µM | 28.6 µM | 37.4 µM | 37.4 µM | 33.8 µM
OC1C#CCSCC#C/C=C\1 (stereo not drawn) |  | > 100 µM | 36.5 µM |  |  | > 100 µM | 77 µM | > 100 µM | 71.8 µM | > 100 µM | > 100 µM | > 100 µM | > 100 µM | > 100 µM | > 100 µM | > 100 µM
Cn1cc(NC(=O)Nc2cc(C(=O)Nc3cc(C(=O)Nc4ccc(S(=O)(=O)O)c5cc(S(=O)(=O)O)ccc45)n(C)c3)n(C)c2)cc1C(=O)Nc1cc(C(=O)Nc2ccc(S(=O)(=O)O)c3cc(S(=O)(=O)O)ccc23)n(C)c1 | > 100 µM | > 100 µM | > 100 µM | > 100 µM | > 100 µM | > 100 µM | > 100 µM |  | > 100 µM | > 100 µM | > 100 µM | > 100 µM | > 100 µM | > 100 µM | > 100 µM | > 100 µM
CC#CCOC(=O)c1ccccc1OC(C)=O | > 100 µM | > 100 µM | > 100 µM | > 100 µM | > 100 µM |  | > 100 µM | > 100 µM | > 100 µM | > 100 µM | > 100 µM | > 100 µM | > 100 µM | > 100 µM |  | 
N#CCCN(C(=O)Nc1ccccc1)[C@H]1CCCC[C@@H]1N(C(=O)Nc1ccccc1)c1ccccc1 | > 100 µM | > 100 µM | > 100 µM | > 100 µM | > 100 µM | > 100 µM | > 100 µM | > 100 µM |  | > 100 µM | > 100 µM | > 100 µM | > 100 µM | > 100 µM | > 100 µM | > 100 µM
COC(CNC(=O)C(C)NC(=O)/C=C/c1ccccc1)OC (stereo not drawn) | > 100 µM | > 100 µM | > 100 µM | > 100 µM | > 100 µM |  | > 100 µM | > 100 µM | > 100 µM | > 100 µM | > 100 µM | > 100 µM | > 100 µM | > 100 µM | > 100 µM | > 100 µM
O=[N+]([O-])/C(C(Cl)=C(Cl)Cl)=C(/Cl)Sc1ccccc1 | 1.15 µM | 37.6 µM | 34.6 µM | 4.47 µM | 32 µM | 3.61 µM | 0.786 µM | 27.4 µM | 0.318 µM |  | 3.78 µM | 3.29 µM | 4.66 µM | 5.04 µM | 6.12 µM | 3.03 µM
